# Values of other authors, collected in publication PMC10116525 (ACS Omega, 2023).
# Where two headings read alike, the source gives them in different places.
# [1] = Lys^B29-lipidated insulin analogues
Substance,Duration of action [1],Duration of action (precipitation in the subcutaneous space)
degludec,≤ 42 h,
detemir,up to 24 h,
insulin glargine,,up to 24 h
